# Reference: patent US11602519B1, “Method for preventing myocardial infarction using eucalyptol” (KING FAISAL UNIVERSITY, priority 2021, dated 2023)
# Key:
# Assay type in all cases: in vivo, Wister rats
# [1] = system: ISO induced MI animals; assay: Heart rate and ECG recording in ISO-induced myocardial infarction; conditions: for Heart Rate / P Wave / P-R interval / QRS complex / QT interval / R-R interval / ST segment: mean ± SD, n=6
# Description: Animals were distributed into five groups randomly (n=6). The animals in normal and eucalyptol control groups were administered either saline or eucalyptol for 3 weeks and then saline (s.c) on the last two days of the experiment (20th and 21st days). The animals in the myocardial infarction (MI) control group were given saline orally for 3 weeks, then challenged with Isoproterenol (ISO) (85 mg/kg, s.c.) as stated before on the 20th and 21st days to induce MI. The animals in the eucalyptol pretreatment groups were pretreated with eucalyptol (either 100 or 200 mg/kg) orally for 3 weeks then confronted with ISO (85 mg/kg s.c.) on the last two days of the experiment. All experimental animals were killed 24 hrs after the second dose of ISO. At the end of the experiments, urethane-anesthetized rats (1.5 g/kg) were prone positioned to obtain uninterrupted ECG recordings using noninvasive computerized ECG apparatus from. Kent Scientific (USA). Heart rate and ECG components including ST segment, wave. QT, P-R and R-R intervals, and QRS complex were electronically measured.
# [2] = system: ISO induced MI animals; assay: Infarct size determination (TTC staining) in ISO-induced MI; conditions: pretreatment 100, 200 mg/kg, 21 days, vs ISO induced MI group
# Description: Animals were distributed into five groups randomly (n=6). The animals in normal and eucalyptol control groups were administered either saline or eucalyptol for 3 weeks and then saline (s.c) on the last two days of the experiment (20th and 21st days). The animals in the myocardial infarction (MI) control group were given saline orally for 3 weeks, then challenged with Isoproterenol (ISO) (85 mg/kg, s.c.) as stated before on the 20th and 21st days to induce MI. The animals in the eucalyptol pretreatment groups were pretreated with eucalyptol (either 100 or 200 mg/kg) orally for 3 weeks then confronted with ISO (85 mg/kg s.c.) on the last two days of the experiment. All experimental animals were killed 24 hrs after the second dose of ISO. Subsequent to ECG determination, blood samples were collected and the hearts were directly removed and balanced using an animal weighing scale prior to storage. The obtained blood samples were centrifuged and the serum from different experimental groups was frozen in −80° C. for further biochemical examinations. Frozen hearts were cut into 4-5 transverse incubated in 10% TTC (dissolved phosphate buffer, pH 7.4) for 25 min. at room temperature, fixed using 10% formaldehyde, and finally quantified using Image J® program (National Institutes of Health, University of Wisconsin).
# [3] = system: ISO induced MI animals; assay: Cardiac enzymes by ELISA in ISO-induced MI
# Description: (§1) Animals were distributed into five groups randomly (n=6). The animals in normal and eucalyptol control groups were administered either saline or eucalyptol for 3 weeks and then saline (s.c) on the last two days of the experiment (20th and 21st days). The animals in the myocardial infarction (MI) control group were given saline orally for 3 weeks, then challenged with Isoproterenol (ISO) (85 mg/kg, s.c.) as stated before on the 20th and 21st days to induce MI. The animals in the eucalyptol pretreatment groups were pretreated with eucalyptol (either 100 or 200 mg/kg) orally for 3 weeks then confronted with ISO (85 mg/kg s.c.) on the last two days of the experiment. All experimental animals were killed 24 hrs after the second dose of ISO. The extracted heart tissues were homogenated in 10% phosphate buffer to be used for the measurement of numerous biochemical parameters, including cardiac enzymes, apoptotic markers, inflammatory mediators' markers, and total protein. ELISA kits were consumed to measure cardiac enzymes: CPK, CK-MB, cTnT, and cTnI; apoptotic markers: Caspase 3 and Caspase 9 and inflammatory mediators: TNF-α, IL-1β, and NFκB. All ELISA Kits were used according to the manufacturer's protocols and using a microplate reader SpectraMax i.3× (Molecular Devices, USA).
# [4] = system: TLR pathway (TLR 2, TLR 4, MYD 88, and TRIF); assay: TLR pathway mRNA expression by real-time PCR in ISO-induced MI; conditions: pretreatment 100, 200 mg/kg, 21 days, vs ISO induced MI control group
# Description: Animals were distributed into five groups randomly (n=6). The animals in normal and eucalyptol control groups were administered either saline or eucalyptol for 3 weeks and then saline (s.c) on the last two days of the experiment (20th and 21st days). The animals in the myocardial infarction (MI) control group were given saline orally for 3 weeks, then challenged with Isoproterenol (ISO) (85 mg/kg, s.c.) as stated before on the 20th and 21st days to induce MI. The animals in the eucalyptol pretreatment groups were pretreated with eucalyptol (either 100 or 200 mg/kg) orally for 3 weeks then confronted with ISO (85 mg/kg s.c.) on the last two days of the experiment. All experimental animals were killed 24 hrs after the second dose of ISO. Real-time PCR was preformed according to known techniques. Primer sequences used in this study were as follows: Bcl-2-[…] NO: 1), Bcl-2-[…] ID NO:2), Bax-[…] NO: 3), Bax-[…] ID NO: 4), […] ID NO: 5), […] ID NO: 6), […] ID NO: 7), […] ID NO: 8), MyD88 -[…] ID NO: 9), […] ID NO: 11), […] ID NO: 12), β-[…] NO: 13), β-[…] ID NO: 14).
# [5] = system: TLR pathway (TLR 2, TLR 4, MYD 88, and TRIF); assay: TLR pathway protein expression by Western blot in cardiac tissue, ISO-induced MI
# Description: Animals were distributed into five groups randomly (n=6). The animals in normal and eucalyptol control groups were administered either saline or eucalyptol for 3 weeks and then saline (s.c) on the last two days of the experiment (20th and 21st days). The animals in the myocardial infarction (MI) control group were given saline orally for 3 weeks, then challenged with Isoproterenol (ISO) (85 mg/kg, s.c.) as stated before on the 20th and 21st days to induce MI. The animals in the eucalyptol pretreatment groups were pretreated with eucalyptol (either 100 or 200 mg/kg) orally for 3 weeks then confronted with ISO (85 mg/kg s.c.) on the last two days of the experiment. All experimental animals were killed 24 hrs after the second dose of ISO. For detection of the Toll-Like Receptors pathway protein expressions, Western blot was performed according to known methods. Values were mentioned as mean SEM (n=6). Densitometry inquiry was accomplished via Image software for Western analysis. Statistical analysis appraisal was done via GraphPad Prism 5.
# [6] = system: HSP-60 and inflammatory markers (TNF-α, IL-6 and NFκB); assay: HSP-60 and inflammatory mediators in ISO-induced MI
# Description: as §1
# [7] = system: Bax, Bcl2, Caspase 3 and 9; assay: Apoptotic status within the myocardium in ISO-induced MI (Bax, Bcl-2 mRNA; Caspase 3 and 9)
# Description: as §1, with “USA). Real-time PCR was preformed according to known techniques. Primer sequences used in this study were as follows: Bcl-2-[…] NO: 1), Bcl-2-[…] ID NO:2), Bax-[…] NO: 3), Bax-[…] ID NO: 4), […] ID NO: 5), […] ID NO: 6), […] ID NO: 7), […] ID NO: 8), MyD88 -[…] ID NO: 9), […] ID NO: 11), […] ID NO: 12), β-[…] NO: 13), β-[…] ID NO: 14).” for “USA).”
# [8] = Eucalyptol 100 mg/kg orally 21 days, then ISO
# [9] = Eucalyptol 200 mg/kg orally 21 days, then ISO
# [10] = Eucalyptol control group, no ISO
# [11] = eucalyptol control group, no ISO
# [12] = pretreatment 100, 200 mg/kg, 21 days, vs ISO induced MI group
# [13] = pretreatment (100 and 200 mg/kg, 21 days) vs MI animals
compound,measurement,setting,value
"CC12CCC(CC1)C(C)(C)O2 [Eucalyptol, 1,8-cineole]",Heart Rate,"[1]; Eucalyptol 100 mg/kg orally 21 days, then ISO 85 mg/kg s.c.",294 ± 21.06 ≠ beat/min
same,P Wave,[1]; [8],0.015 ± 0.001 ≠ sec.
same,P-R interval,[1]; [8],0.212 ± 0.012 ≠ sec.
same,QRS complex,[1]; [8],0.038 ± 0.001 ≠ sec.
same,QT interval,[1]; [8],0.064 ± 0.003 ≠ sec.
same,R-R interval,[1]; [8],0.180 ± 0.004 ≠ sec.
same,ST segment,[1]; [8],0.061 ± 0.009 ≠ mV
same,Heart Rate,"[1]; Eucalyptol 200 mg/kg orally 21 days, then ISO 85 mg/kg s.c.",337.16 ± 14.98 ≠ beat/min
same,P Wave,[1]; [9],0.015 ± 0.001 ≠ sec.
same,P-R interval,[1]; [9],0.222 ± 0.05 ≠ sec.
same,QRS complex,[1]; [9],0.035 ± 0.001 ≠ sec.
same,QT interval,[1]; [9],0.061 ± 0.003 ≠ sec.
same,R-R interval,[1]; [9],0.183 ± 0.056 ≠ sec.
same,ST segment,[1]; [9],0.046 ± 0.009 ≠ mV
same,P Wave,[1]; [10],0.019 ± 0.002 s
same,P-R interval,[1]; [10],0.230 ± 0.012 s
same,QRS complex,[1]; [10],0.042 ± 0.001 s
same,QT interval,[1]; [10],0.047 ± 0.002 s
same,R-R interval,[1]; [10],0.222 ± 0.012 s
same,ST segment,[1]; [10],0.025 ± 0.002 mV
same,Heart Rate,"[1]; Eucalyptol control group: eucalyptol for 3 weeks, saline s.c. instead of ISO",398.16 ± 43.67 beat/min
same,heart rate and electrocardiographic (ECG) patterns,[1]; [11],normal
same,HR as well as ECG alterations,[1]; [12],reversed
same,infarcted area magnitude (infarct size),[2],significant infarcted restricting action
same,"cardiac enzymes (CPK, CK-MB, cTnT, cTnI)",[3]; [11],normal
same,Cardiac Tropinine I (cTnI),[3]; [12],significantly diminished
same,Cardiac Tropinine T (cTnT),[3]; [12],significantly diminished
same,Creatine Kinase Myocardial Bound (CK-MB),[3]; [12],significantly diminished
same,Creatine Phosphokinase (CPK),[3]; [12],significantly diminished
same,MYD 88 relative mRNA expression level,[4],considerably (p<0.05) declined
same,TLR 2 relative mRNA expression level,[4],considerably (p<0.05) declined
same,TLR 4 relative mRNA expression level,[4],considerably (p<0.05) declined
same,TRIF relative mRNA expression level,[4],considerably (p<0.05) declined
same,TLR pathway protein content,[5]; [11],no effect
same,"post-myocardial infarction intensification of TLR pathway protein expression (TLR 2, TLR 4, MYD 88, TRIF)","[5]; pretreatment 100 and 200 mg/kg, cardiac tissue, Western blot",lessened
same,"HSP-60, IL-6 and NFκB, 200 mg/kg compared with 100 mg/kg",[6]; dose of 200 mg/kg vs 100 mg/kg,further significant reduction
same,"TNF-α, 200 mg/kg compared with 100 mg/kg",[6]; dose of 200 mg/kg vs 100 mg/kg,non-significant difference
same,"HSP-60 and inflammatory markers (TNF-α, IL-6 and NFκB)",[6]; [11],no effect
same,myocardial infarction elevation in HSP 60,[6]; pretreatment 100 and 200 mg/kg,diminished
same,"myocardial infarction elevation in inflammatory mediators (TNF-α, IL-6 and NFκB)",[6]; pretreatment 100 and 200 mg/kg,diminished
same,"Bax, Bcl2, Caspase 3 and 9",[7]; [11],no effect
same,Bax relative mRNA expression,[7]; [13],deteriorated
same,Bcl-2 mRNA expression,[7]; [13],intensified
same,Caspase 3 and 9 activities,[7]; [13],deteriorated
